In PubChem BioAssay AID248 (DTP/NCI, 2004) one finds T/C data, which are given here for 19 compounds.

Several values for one entry are separate records, joined by “and”; a condition that tells them apart may be missing. Equal entries are not always repeated. Inconclusive results and toxic doses are left out.

The subject of this assay is L1210 leukemia ip in BDF1 mice, survival T/C. Put plainly: NCI In Vivo Anticancer Drug Screen. Data for tumor model L1210 Leukemia (intraperitoneal) in B6D2F1 (BDF1) mice. The settings on record: endpoint: mean survival time, higher = longer survival. Summed up:
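Mice bearing the transplanted tumor received compound or vehicle. Survival of the treated group was divided by that of the vehicle-treated control group to give the ratio.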

Setting [1] is: dose: 400.0 mg/kg/injection, schedule: Q04DX002 (ip), vehicle: saline with Tween-80.
The mark [2] stands for this setting: dose: 100.0 mg/kg/injection, schedule: Q04DX002 (ip), vehicle: saline with Tween-80.
[3] abbreviates: dose: 200.0 mg/kg/injection, schedule: Q04DX002 (ip), vehicle: saline with Tween-80.
Setting [4] is: dose: 100.0 mg/kg/injection, schedule: Q01DX009 (ip), vehicle: Klucel (hydroxypropylcellulose) (HPC).
Setting [5] is: dose: 100.0 mg/kg/injection, schedule: Q04DX003 (ip), vehicle: Klucel (hydroxypropylcellulose) (HPC).
Where [6] appears, read: dose: 200.0 mg/kg/injection, schedule: Q01DX009 (ip), vehicle: Klucel (hydroxypropylcellulose) (HPC).
The mark [7] stands for this setting: dose: 200.0 mg/kg/injection, schedule: Q04DX003 (ip), vehicle: Klucel (hydroxypropylcellulose) (HPC).
[8] abbreviates: dose: 400.0 mg/kg/injection, schedule: Q04DX003 (ip), vehicle: Klucel (hydroxypropylcellulose) (HPC).
[9] abbreviates: dose: 200.0 mg/kg/injection, schedule: Q01DX009 (ip), vehicle: other.
Setting [10] is: dose: 100.0 mg/kg/injection, schedule: Q01DX009 (ip), vehicle: saline with Tween-80.
[11] abbreviates: dose: 100.0 mg/kg/injection, schedule: Q01DX001 (ip), vehicle: other.
The mark [12] stands for this setting: dose: 200.0 mg/kg/injection, schedule: Q01DX001 (ip), vehicle: other.
Where [13] appears, read: dose: 400.0 mg/kg/injection, schedule: Q01DX001 (ip), vehicle: other.

Regarding `NNc1c(F)c(F)c(Br)c(F)c1F`, the T/C runs as follows: (dose: 25.6 mg/kg/injection, schedule: Q04DX002 (ip), vehicle: saline with Tween-80) 106 % of control; (dose: 64.0 mg/kg/injection, schedule: Q04DX002 (ip), vehicle: saline with Tween-80) 95 % of control; (dose: 160.0 mg/kg/injection, schedule: Q04DX002 (ip), vehicle: saline with Tween-80) 106 % of control; under setting [1], 95 % of control.

Regarding `c1ccc(C(Nc2ccccn2)(c2ccccc2)c2ccccc2)cc1`, the T/C runs as follows: under setting [2], 104 % of control; under setting [3], 101 % of control; under setting [1], 93 % of control.

In the case of `O=C1c2cccc3cccc(c23)C(=O)N1CCN1C(=O)c2cccc3cccc(c23)C1=O`, the T/C (dose: 3.13 mg/kg/injection, schedule: Q01DX009 (ip), vehicle: Klucel (hydroxypropylcellulose) (HPC)) was 100 % of control; the T/C (dose: 6.25 mg/kg/injection, schedule: Q01DX009 (ip), vehicle: Klucel (hydroxypropylcellulose) (HPC)) is 103 % of control; the T/C (dose: 12.5 mg/kg/injection, schedule: Q01DX009 (ip), vehicle: Klucel (hydroxypropylcellulose) (HPC)) is 100 % of control.

For the compound `CCOC(=O)NC1C2CC3C(C2)C31` (stereo not given), the T/C (dose: 50.0 mg/kg/injection, schedule: Q01DX001 (ip), vehicle: carboxymethylcellulose (CMC)) is 107 % of control; the T/C (dose: 100.0 mg/kg/injection, schedule: Q01DX001 (ip), vehicle: carboxymethylcellulose (CMC)) is 103 % of control; the T/C (dose: 200.0 mg/kg/injection, schedule: Q01DX001 (ip), vehicle: carboxymethylcellulose (CMC)) is 101 % of control; the T/C (dose: 400.0 mg/kg/injection, schedule: Q01DX001 (ip), vehicle: carboxymethylcellulose (CMC)) is 109 % of control.

Take `CNC(=O)ON=C1CCC(CC2CCCCC2)CC1` (stereo not given): the T/C is, setting by setting: (dose: 50.0 mg/kg/injection, schedule: Q01DX009 (ip), vehicle: Klucel (hydroxypropylcellulose) (HPC)) 100 % of control; under setting [4], 91 % of control; under setting [5], 92 % of control; under setting [6], 96 % of control; under setting [7], 94 % of control.

With `CCOP(=O)(OCC)OC(C)CC` (stereo not given), the T/C under setting [2] is 109 % of control, the T/C under setting [3] was 103 % of control and the T/C under setting [1] was 106 % of control.

With `Clc1cc(Cl)c(/C=C/c2c(Cl)cc(Cl)cc2Cl)c(Cl)c1`, the T/C is, setting by setting: under setting [5], 98 % of control; under setting [7], 93 % of control; under setting [8], 95 % of control.

`CCCCCc1c(CCCC)c(=O)[nH]c2ccccc12`: the T/C is, setting by setting: (dose: 100.0 mg/kg/injection, schedule: Q01DX001 (ip), vehicle: saline) 97 % of control; (dose: 200.0 mg/kg/injection, schedule: Q01DX001 (ip), vehicle: saline) 98 % of control; (dose: 400.0 mg/kg/injection, schedule: Q01DX001 (ip), vehicle: saline) 90 % of control.

As for `COc1ccc2c(=O)cc(-c3ccccc3)[nH]c2c1`, the T/C reads like this: (dose: 50.0 mg/kg/injection, schedule: Q04DX003 (ip), vehicle: saline) 100 % of control; (dose: 100.0 mg/kg/injection, schedule: Q01DX009 (ip), vehicle: other) 122 % of control; (dose: 100.0 mg/kg/injection, schedule: Q04DX003 (ip), vehicle: saline) 106 % of control; under setting [9], 123 % of control; (dose: 200.0 mg/kg/injection, schedule: Q04DX003 (ip), vehicle: saline) 101 % of control; (dose: 400.0 mg/kg/injection, schedule: Q04DX003 (ip), vehicle: saline) 104 % of control.

With `Nc1c(Cl)c(Cl)c(Cl)c(Cl)c1C(=O)O`, the T/C was 105 % of control (dose: 40.0 mg/kg/injection, schedule: Q01DX009 (ip), vehicle: Klucel (hydroxypropylcellulose) (HPC)); 103 % of control (dose: 75.0 mg/kg/injection, schedule: Q01DX009 (ip), vehicle: Klucel (hydroxypropylcellulose) (HPC)); 104 % of control (dose: 75.0 mg/kg/injection, schedule: Q04DX003 (ip), vehicle: saline); 93 % of control under setting [4]; 97 % of control and 122 % of control (dose: 150.0 mg/kg/injection, schedule: Q01DX009 (ip), vehicle: Klucel (hydroxypropylcellulose) (HPC)); 98 % of control (dose: 150.0 mg/kg/injection, schedule: Q04DX003 (ip), vehicle: saline). Moreover, under setting [6], the T/C was 93 % of control.

For `Nc1cc(N)c(O)c(N)c1`, the T/C is, setting by setting: (dose: 0.5 mg/kg/injection, schedule: Q04DX003 (ip), vehicle: saline) 103 % of control; (dose: 1.0 mg/kg/injection, schedule: Q04DX003 (ip), vehicle: saline) 105 % of control; (dose: 1.25 mg/kg/injection, schedule: Q01DX009 (ip), vehicle: saline) 95 % of control; (dose: 2.0 mg/kg/injection, schedule: Q04DX003 (ip), vehicle: saline) 111 % of control; (dose: 2.5 mg/kg/injection, schedule: Q01DX009 (ip), vehicle: saline) 90 % of control; (dose: 5.0 mg/kg/injection, schedule: Q01DX009 (ip), vehicle: saline) 97 % of control.

Turning to `Clc1onc(-c2ccccc2)c1-c1ccccc1`, the T/C under setting [10] was 101 % of control; the T/C (dose: 100.0 mg/kg/injection, schedule: Q04DX003 (ip), vehicle: saline with Tween-80) was 107 % of control; the T/C (dose: 200.0 mg/kg/injection, schedule: Q01DX009 (ip), vehicle: saline with Tween-80) is 110 % of control; the T/C (dose: 200.0 mg/kg/injection, schedule: Q04DX003 (ip), vehicle: saline with Tween-80) is 90 % of control; the T/C (dose: 400.0 mg/kg/injection, schedule: Q01DX009 (ip), vehicle: saline with Tween-80) was 97 % of control; the T/C (dose: 400.0 mg/kg/injection, schedule: Q04DX003 (ip), vehicle: saline with Tween-80) is 91 % of control.

As to `COc1ccc(CCCC(C)(C)O)cc1`, the T/C was 94 % of control (dose: 50.0 mg/kg/injection, schedule: Q01DX009 (ip), vehicle: saline with Tween-80) and 97 % of control under setting [10].

For `O=P1(O)Cc2ccccc2-c2ccccc21`, the T/C by setting is: under setting [11], 96 % of control; under setting [12], 101 % of control; under setting [13], 98 % of control.

Consider `CSc1ncnc2c1ncn2NC(C)=O`, for which the T/C (dose: 88.0 mg/kg/injection, schedule: Q01DX009 (ip), vehicle: other) is 107 % of control; the T/C under setting [11] is 98 % of control; the T/C (dose: 134.0 mg/kg/injection, schedule: Q01DX009 (ip), vehicle: other) is 104 % of control; the T/C under setting [12] is 104 % of control; the T/C under setting [9] was 113 % of control; the T/C (dose: 300.0 mg/kg/injection, schedule: Q01DX009 (ip), vehicle: other) was 120 % of control. In addition, under setting [13], the T/C is 112 % of control.

`CN1CN(c2ccccc2)C2(CCN(CC3Cc4cc(F)ccc4O3)CC2)C1=O` (stereo not given): the T/C runs as follows: (dose: 100.0 mg/kg/injection, schedule: Q01DX001 (ip), vehicle: Klucel (hydroxypropylcellulose) (HPC)) 101 % of control; (dose: 200.0 mg/kg/injection, schedule: Q01DX001 (ip), vehicle: Klucel (hydroxypropylcellulose) (HPC)) 98 % of control; (dose: 400.0 mg/kg/injection, schedule: Q01DX001 (ip), vehicle: Klucel (hydroxypropylcellulose) (HPC)) 96 % of control.

`c1ccc2c(CCc3ccncc3)cccc2c1`: the T/C is 103 % of control under setting [4]; 101 % of control under setting [5]; 100 % of control under setting [6]; 103 % of control under setting [7]; 97 % of control (dose: 400.0 mg/kg/injection, schedule: Q01DX009 (ip), vehicle: Klucel (hydroxypropylcellulose) (HPC)); 100 % of control under setting [8].

Turning to `OCC1OC(n2cnc3c(=S)nc(NO)[nH]c32)C(O)C1O` (stereo not given), the T/C was 165 % of control (dose: 12.5 mg/kg/injection, schedule: Q01DX005 (ip), vehicle: saline); 88 % of control (dose: 50.0 mg/kg/injection, schedule: Q01DX005 (ip), vehicle: saline); 107 % of control (dose: 100.0 mg/kg/injection, schedule: Q01DX005 (ip), vehicle: saline).

In the case of `COC(=O)N1C2CC=C(C)CC21` (stereo not given), the T/C was 94 % of control (dose: 75.0 mg/kg/injection, schedule: Q01DX001 (ip), vehicle: saline); 104 % of control (dose: 150.0 mg/kg/injection, schedule: Q01DX001 (ip), vehicle: saline); 100 % of control (dose: 300.0 mg/kg/injection, schedule: Q01DX001 (ip), vehicle: saline).
